Assay results reported in PMC6001238, “Iterative Chemical Engineering of Vancomycin Leads to Novel Vancomycin Analogs With a High in Vitro Therapeutic Index” (Frontiers in Microbiology, 2018).
≈ marks a conversion by molar mass, not a printed value.

Columns and labels:
[1] = system: E. faecalis VSE 1; experiment: MIC, broth microdilution, vancomycin-sensitive E. faecalis (VSE 1); assay type: cell-based, Enterococcus faecalis; conditions: for MIC: Enterococcus faecalis VSE 1 (vancomycin-sensitive), read-out: MIC; for MIC-fold improvement vs. vancomycin: VSE 1, ratio of MIC of vancomycin and MIC of analogue
Method in brief: (§1)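 MIC values come from broth microdilution run to CLSI susceptibility-testing standards. Ultrapure water and uninoculated broth served as controls. In one series, vancomycin at a final 10 μM was co-dosed with the analogue or comparator antibiotic.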

[2] = system: E. faecalis VRE 6; experiment: MIC, broth microdilution, vancomycin-resistant E. faecalis VRE 6 (VanA); assay type: cell-based, Enterococcus faecalis; conditions: for MIC: Enterococcus faecalis VRE 6 (vancomycin-resistant), read-out: MIC; for MIC-fold improvement vs. vancomycin: VRE 6, ratio of MIC of vancomycin and MIC of analogue
Method in brief: as §1

[3] = system: E. faecalis VRE 53; experiment: MIC, broth microdilution, vancomycin-resistant E. faecalis VRE 53 (VanA); assay type: cell-based, Enterococcus faecalis; conditions: for MIC: Enterococcus faecalis VRE 53 (vancomycin-resistant), read-out: MIC; for MIC-fold improvement vs. vancomycin: VRE 53, ratio of MIC of vancomycin and MIC of analogue
Method in brief: as §1

[4] = system: E. faecalis VRE 29; experiment: MIC, broth microdilution, vancomycin-resistant E. faecalis VRE 29 (VanA); assay type: cell-based, Enterococcus faecalis; conditions: for MIC: Enterococcus faecalis VRE 29 (vancomycin-resistant), read-out: MIC; for MIC-fold improvement vs. vancomycin: VRE 29, ratio of MIC of vancomycin and MIC of analogue
Method in brief: as §1

[5] = system: E. faecalis VRE 37; experiment: MIC, broth microdilution, vancomycin-resistant E. faecalis VRE 37 (VanA); assay type: cell-based, Enterococcus faecalis; conditions: for MIC: Enterococcus faecalis VRE 37 (vancomycin-resistant), read-out: MIC; for MIC-fold improvement vs. vancomycin: VRE 37, ratio of MIC of vancomycin and MIC of analogue
Method in brief: as §1

[6] = system: Murine leukemia (L1210) cells; experiment: Cytostatic activity, L1210 cell proliferation; assay type: cell-based; conditions: mean ± SD of three experiments; highest concentration tested 250 µM; 2 days; read-out: Toxicity (IC50) L1210
Method in brief: (§2)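 Test compounds, serially diluted, received an equal volume of cell suspension at 300,000–500,000 cells/mL. After 37°C incubation (2 days for L1210, 3 for CEM, 4 for HeLa), cells were enumerated by Coulter counting and 50%-inhibitory concentrations calculated per cell type.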

[7] = system: human T-lymphocyte (CEM) cells; experiment: Cytostatic activity, CEM cell proliferation; assay type: cell-based; conditions: mean ± SD of three experiments; highest concentration tested 250 µM; 3 days; read-out: Toxicity (IC50) CEM
Method in brief: as §2

[8] = system: human cervix carcinoma (HeLa) cells; experiment: Cytostatic activity, HeLa cell proliferation; assay type: cell-based; conditions: mean ± SD of three experiments; highest concentration tested 250 µM; 4 days; read-out: Toxicity (IC50) HeLa
Method in brief: as §2

[9] = system: L1210, CEM and HeLa cell lines; experiment: Cytostatic activity, average or summary over L1210, CEM and HeLa; assay type: cell-based; conditions: average of L1210, CEM and HeLa; read-out: Toxicity (IC50) Average
Method in brief: as §2

[10] = system: S. aureus VSSA (ATCC 6538); experiment: MIC, broth microdilution, vancomycin-sensitive S. aureus (VSSA/MSSA, ATCC 6538); assay type: cell-based, Staphylococcus aureus; conditions: for MIC: Staphylococcus aureus VSSA, read-out: MIC; for MIC-fold improvement vs. vancomycin: VSSA, ratio of MIC of vancomycin and MIC of analogue
Method in brief: as §1

[11] = system: S. aureus VISA/HIP5827; experiment: MIC, broth microdilution, vancomycin-intermediate S. aureus VISA HIP5827; assay type: cell-based, Staphylococcus aureus; conditions: for MIC: Staphylococcus aureus VISA/HIP5827, read-out: MIC; for MIC-fold improvement vs. vancomycin: VISA/HIP5827, ratio of MIC of vancomycin and MIC of analogue
Method in brief: as §1

[12] = system: S. aureus VRSA; experiment: MIC, broth microdilution, vancomycin-resistant S. aureus (VRSA); assay type: cell-based, Staphylococcus aureus; conditions: for MIC: Staphylococcus aureus VRSA, read-out: MIC; for MIC-fold improvement vs. vancomycin: VRSA, ratio of MIC of vancomycin and MIC of analogue
Method in brief: as §1

[13] = system: MRSA KS2; experiment: MIC, broth microdilution, MRSA KS2; assay type: cell-based, Staphylococcus aureus; conditions: for MIC-fold improvement vs. vancomycin: MRSA KS2, ratio of MIC of vancomycin and MIC of analogue; for MIC: Staphylococcus aureus MRSA KS2, read-out: MIC
Method in brief: as §1

[14] = system: MRSA KS6; experiment: MIC, broth microdilution, MRSA KS6; assay type: cell-based, Staphylococcus aureus; conditions: for MIC-fold improvement vs. vancomycin: MRSA KS6, ratio of MIC of vancomycin and MIC of analogue; for MIC: Staphylococcus aureus MRSA KS6, read-out: MIC
Method in brief: as §1

[15] = system: MRSA KS89; experiment: MIC, broth microdilution, MRSA KS89; assay type: cell-based, Staphylococcus aureus; conditions: for MIC-fold improvement vs. vancomycin: MRSA KS8, ratio of MIC of vancomycin and MIC of analogue; for MIC: Staphylococcus aureus MRSA KS8, read-out: MIC
Method in brief: as §1

[16] = system: MRSA KS1; experiment: MIC, broth microdilution, MRSA KS1; assay type: cell-based, Staphylococcus aureus; conditions: for MIC-fold improvement vs. vancomycin: MRSA KS1, ratio of MIC of vancomycin and MIC of analogue; for MIC: Staphylococcus aureus MRSA KS1, read-out: MIC
Method in brief: as §1

| SMILES | MIC [1] | MIC-fold improvement vs. vancomycin [1] | MIC [2] | MIC-fold improvement vs. vancomycin [2] | MIC [3] | MIC-fold improvement vs. vancomycin [3] | MIC [4] | MIC-fold improvement vs. vancomycin [4] | MIC [5] | IC50 [6] | IC50 [7] | IC50 [8] | IC50 [9] | MIC [10] | MIC-fold improvement vs. vancomycin [10] | MIC [11] | MIC-fold improvement vs. vancomycin [11] | MIC [12] | MIC-fold improvement vs. vancomycin [12] | MIC-fold improvement vs. vancomycin [13] | further results |
| --- | --- | --- | --- | --- | --- | --- | --- | --- | --- | --- | --- | --- | --- | --- | --- | --- | --- | --- | --- | --- | --- |
| CNC(CC(C)C)C(=O)NC1C(=O)NC(CC(N)=O)C(=O)NC2C(=O)NC3C(=O)NC(C(=O)NC(C(=O)NCCCNC(=O)c4ccc(-c5ccc(-c6ccccc6)cc5)cc4)c4cc(O)cc(O)c4-c4cc3ccc4O)C(O)c3ccc(c(Cl)c3)Oc3cc2cc(c3OC2OC(CO)C(O)C(O)C2OC2CC(C)(N)C(O)C(C)O2)Oc2ccc(cc2Cl)C1O (centres unmarked) [Vanc-35] | 0.20 µM (≈ 0.352 µg/mL) | 8 | 0.39 µM (≈ 0.687 µg/mL) | 513 | 6.25 µM (≈ 11 µg/mL) | 64 | 1.56 µM (≈ 2.75 µg/mL) | 256 | 1.56 µM (≈ 2.75 µg/mL) | 4.1 ± 0.5 µM | 0.98 ± 0.06 µM | 17 ± 2 µM | 7 µM | 0.05 µM (≈ 0.0881 µg/mL) | 16 | 0.05 µM (≈ 0.0881 µg/mL) | 128 | 1.56 µM (≈ 2.75 µg/mL) | 64 | 2 | MIC-fold improvement vs. vancomycin [5]: 256; MIC [13]: 0.39 µM (≈ 0.687 µg/mL); MIC-fold improvement vs. vancomycin [14]: 4; MIC [14]: 0.20 µM (≈ 0.352 µg/mL); MIC-fold improvement vs. vancomycin [15]: 4; MIC [15]: 0.20 µM (≈ 0.352 µg/mL); MIC-fold improvement vs. vancomycin [16]: 1; MIC [16]: 0.78 µM (≈ 1.37 µg/mL) |
| CNC(CC(C)C)C(=O)NC1C(=O)NC(CC(N)=O)C(=O)NC2C(=O)NC3C(=O)NC(C(=O)NC(C(=O)NCCNC(=O)C=Cc4ccc(NS(=O)(=O)c5ccc(Cl)cc5)cc4)c4cc(O)cc(O)c4-c4cc3ccc4O)C(O)c3ccc(c(Cl)c3)Oc3cc2cc(c3OC2OC(CO)C(O)C(O)C2OC2CC(C)(N)C(O)C(C)O2)Oc2ccc(cc2Cl)C1O (centres unmarked) [Vanc-62] | 0.39 µM (≈ 0.706 µg/mL) | 4 | 3.13 µM (≈ 5.67 µg/mL) | 64 | 25 µM (≈ 45.3 µg/mL) | 16 | 6.25 µM (≈ 11.3 µg/mL) | 64 | 12.5 µM (≈ 22.6 µg/mL) | > 250 µM | ≥ 250 µM | 86 ± 42 µM | 195 µM | 0.39 µM (≈ 0.706 µg/mL) | 2 | 1.56 µM (≈ 2.83 µg/mL) | 4 | 0.78 µM (≈ 1.41 µg/mL) | 128 | 4 | MIC [13]: 0.20 µM (≈ 0.362 µg/mL); MIC-fold improvement vs. vancomycin [14]: 2; MIC [14]: 0.39 µM (≈ 0.706 µg/mL); MIC-fold improvement vs. vancomycin [15]: 2; MIC [15]: 0.39 µM (≈ 0.706 µg/mL); MIC-fold improvement vs. vancomycin [16]: 4; MIC [16]: 0.20 µM (≈ 0.362 µg/mL) |
| CCCCC#Cc1ccc(NC(=O)CNC(=O)[C@H]2NC(=O)[C@H]3NC(=O)[C@H](NC(=O)[C@@H]4NC(=O)[C@H](CC(N)=O)NC(=O)[C@H](NC(=O)[C@@H](CC(C)C)NC)[C@H](O)c5ccc(c(Cl)c5)Oc5cc4cc(c5O[C@@H]4O[C@H](CO)[C@@H](O)[C@H](O)[C@H]4O[C@H]4C[C@](C)(N)[C@H](O)[C@H](C)O4)Oc4ccc(cc4Cl)[C@H]3O)c3ccc(O)c(c3)-c3c(O)cc(O)cc32)cc1 [Vanc-37] | 0.20 µM (≈ 0.332 µg/mL) | 8 | 1.56 µM (≈ 2.59 µg/mL) | 128 | 3.13 µM (≈ 5.2 µg/mL) | 128 | 6.25 µM (≈ 10.4 µg/mL) | 64 | 1.56 µM (≈ 2.59 µg/mL) | 14 ± 7 µM | 24 ± 4 µM | 118 ± 10 µM | 52 µM | 0.10 µM (≈ 0.166 µg/mL) | 8 | 0.10 µM (≈ 0.166 µg/mL) | 64 | 1.56 µM (≈ 2.59 µg/mL) | 64 | 4 | MIC-fold improvement vs. vancomycin [5]: 256; MIC [13]: 0.20 µM (≈ 0.332 µg/mL); MIC-fold improvement vs. vancomycin [14]: 8; MIC [14]: 0.10 µM (≈ 0.166 µg/mL); MIC-fold improvement vs. vancomycin [15]: 4; MIC [15]: 0.20 µM (≈ 0.332 µg/mL); MIC-fold improvement vs. vancomycin [16]: 4; MIC [16]: 0.20 µM (≈ 0.332 µg/mL) |
